Source: patent US12509431B2, “1,4-dihydroquinazolinone compounds and uses thereof” (Edgewise Therapeutics, Inc., priority 2022, dated 2025)

Columns and labels:
Type in all cases: biochemical
Settings in all cases: Table 7
[1] = system: Rabbit Skeletal myofibrils (rabbit psoas muscle); experiment: Myofibril ATPase assay (PK/LDH NADH-coupled), skeletal myofibrils
Outline: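 ATPase rate taken as linear-regression slope of A340 (NADH depletion through PK/LDH coupling) over a 75 min kinetic read, with psoas-derived rabbit skeletal myofibrils at pH 7.0. Four-parameter fits of vehicle-normalized activity give EC25 and, where reached, EC50.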

[2] = target: T1, Porcine Ventricle myofibrils (left ventricle of Yucatan minipigs) (Sus scrofa, UniProt P79293); experiment: Myofibril ATPase assay (PK/LDH NADH-coupled), ventricle myofibrils
T1 construct: Myofibrils from porcine cardiac muscle was isolated from the left ventricle of Yucatan minipigs; tissue Exemplar Genetics; host or cells: left ventricle of Yucatan minipigs
Outline: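 NADH depletion (A340) coupled through pyruvate kinase/lactate dehydrogenase reports ATPase rate of porcine left-ventricle myofibrils over 75 min kinetic reads. Regression slopes, vehicle-normalized, fitted by 4-parameter logistic give EC25 and, where available, EC50.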

Porcine Atria myofibrils = experiment: Myofibril ATPase assay (PK/LDH NADH-coupled), atria myofibrils
Outline: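 Values are EC25% (and, for inhibitors, EC50%) from 4-parameter logistic fits of activity normalized to vehicle wells. Rates came from linear regression of 340 nm kinetic reads (every 1.5-2 min, 75 min) of NADH-coupled ATP turnover by porcine atria myofibrils.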

T1 sequence (P79293 whole entry): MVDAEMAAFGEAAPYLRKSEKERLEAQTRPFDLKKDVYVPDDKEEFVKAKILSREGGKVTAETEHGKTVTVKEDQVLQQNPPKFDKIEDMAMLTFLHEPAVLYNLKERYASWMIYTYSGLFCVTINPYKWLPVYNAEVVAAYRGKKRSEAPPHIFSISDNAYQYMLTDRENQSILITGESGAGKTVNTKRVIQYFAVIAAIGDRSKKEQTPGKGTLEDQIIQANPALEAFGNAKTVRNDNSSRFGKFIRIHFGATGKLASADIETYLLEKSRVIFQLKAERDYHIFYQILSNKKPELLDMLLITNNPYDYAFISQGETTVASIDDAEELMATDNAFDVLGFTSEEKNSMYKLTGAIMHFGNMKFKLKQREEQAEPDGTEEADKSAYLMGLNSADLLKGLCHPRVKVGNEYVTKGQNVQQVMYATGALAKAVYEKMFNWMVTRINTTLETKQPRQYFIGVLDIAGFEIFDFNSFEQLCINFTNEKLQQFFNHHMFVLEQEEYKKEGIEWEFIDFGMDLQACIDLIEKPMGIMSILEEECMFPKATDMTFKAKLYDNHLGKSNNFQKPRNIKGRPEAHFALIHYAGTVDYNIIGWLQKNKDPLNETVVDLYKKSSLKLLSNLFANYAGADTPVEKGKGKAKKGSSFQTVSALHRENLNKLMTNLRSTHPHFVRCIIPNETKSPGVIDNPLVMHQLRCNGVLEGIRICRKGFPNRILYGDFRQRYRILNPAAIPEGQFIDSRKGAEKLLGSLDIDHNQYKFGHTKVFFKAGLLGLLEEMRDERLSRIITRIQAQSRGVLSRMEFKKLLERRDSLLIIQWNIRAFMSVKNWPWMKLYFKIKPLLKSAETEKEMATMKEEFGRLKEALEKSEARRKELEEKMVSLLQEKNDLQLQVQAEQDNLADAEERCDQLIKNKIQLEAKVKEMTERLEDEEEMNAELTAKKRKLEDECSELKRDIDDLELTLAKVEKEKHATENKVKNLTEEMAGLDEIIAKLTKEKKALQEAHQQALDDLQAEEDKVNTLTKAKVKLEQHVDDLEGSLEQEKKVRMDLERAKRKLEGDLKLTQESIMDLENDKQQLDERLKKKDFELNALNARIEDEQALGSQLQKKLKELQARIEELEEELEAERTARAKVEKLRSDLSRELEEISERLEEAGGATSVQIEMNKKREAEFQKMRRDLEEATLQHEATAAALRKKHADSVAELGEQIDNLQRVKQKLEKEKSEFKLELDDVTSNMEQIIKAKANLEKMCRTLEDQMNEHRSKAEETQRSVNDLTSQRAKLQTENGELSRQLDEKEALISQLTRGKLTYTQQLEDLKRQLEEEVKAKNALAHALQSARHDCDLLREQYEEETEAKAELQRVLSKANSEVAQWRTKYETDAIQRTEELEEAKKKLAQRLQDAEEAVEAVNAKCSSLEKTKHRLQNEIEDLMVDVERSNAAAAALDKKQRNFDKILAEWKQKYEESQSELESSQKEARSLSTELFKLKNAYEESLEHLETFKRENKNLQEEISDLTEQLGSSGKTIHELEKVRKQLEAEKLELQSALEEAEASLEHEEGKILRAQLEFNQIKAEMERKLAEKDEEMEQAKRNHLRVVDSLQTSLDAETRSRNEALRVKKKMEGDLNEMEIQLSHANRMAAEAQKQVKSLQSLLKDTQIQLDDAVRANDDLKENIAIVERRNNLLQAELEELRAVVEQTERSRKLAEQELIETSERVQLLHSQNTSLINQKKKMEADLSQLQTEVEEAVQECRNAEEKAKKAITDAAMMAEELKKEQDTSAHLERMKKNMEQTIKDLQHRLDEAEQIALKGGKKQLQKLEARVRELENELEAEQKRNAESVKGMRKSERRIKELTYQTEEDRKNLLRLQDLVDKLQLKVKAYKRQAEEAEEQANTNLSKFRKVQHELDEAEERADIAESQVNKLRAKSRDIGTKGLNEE

SMILES | Rabbit Psoas IC25 [1] [µM] | Porcine Ventricle IC25 [2] [µM] | Porcine Atria IC25 (Porcine Atria myofibrils) [µM]
C[C@@H](NC(=O)CN1Cc2cnccc2NC1=O)c1ccc(C#N)cc1F [Compound N20] | 0.1315 | 100 | 100.00
C[C@H](NC(=O)CN1Cc2cnccc2NC1=O)c1ccc(C#N)cc1F [Compound N21] | 6.632 | 13.45 | 4.36
C[C@@H](NC(=O)CN1Cc2c(ccnc2C#N)NC1=O)c1ccc(C#N)cc1F [Compound N22] | 0.2583 | 100 | 100.00
C[C@H](NC(=O)CN1Cc2c(ccnc2C#N)NC1=O)c1ccc(C#N)cc1F [Compound N23] | 0.0165 | 0.1625 | 0.28
C[C@@H](NC(=O)CN1C(=O)Nc2cccnc2C12CC2)c1ncc(C#N)cc1F [Compound N25] | 1.324 | 100 | 13.11
O=C(CN1C(=O)Nc2cccnc2C12CC2)N[C@H](CO)c1ccc(F)cc1F [Compound N27] | 100 | 100 | 100.00
O=C(CN1C(=O)Nc2cccnc2C12CC2)N[C@@H](CO)c1ccc(F)cc1F [Compound N28] | 0.2814 | 6.602 | 0.41
C[C@@H](NC(=O)CN1C(=O)Nc2cccnc2C12COC2)c1ncc(F)cc1F [Compound N29] | 100 | 100 | 100.00
C[C@H](NC(=O)CN1C(=O)Nc2cccnc2C12COC2)c1ncc(F)cc1F [Compound N30] | 5.318 | 100 | 35.72
N#Cc1ccc([C@@H](CO)NC(=O)CN2Cc3c(ccnc3C#N)NC2=O)c(F)c1 [Compound N31] | 0.0533 | 1.237 | 0.38
N#Cc1ccc([C@H](CO)NC(=O)CN2Cc3c(ccnc3C#N)NC2=O)c(F)c1 [Compound N32] | 2.872 | 100 | 100.00
O=C(CN1C(=O)Nc2cccnc2C12CC2)N[C@H]1COc2cc(F)cc(F)c21 [Compound N34] | 1.366 | 100 | 8.44
C[C@H](NC(=O)CN1C(=O)Nc2cccnc2C12COC2)c1ccc(F)cc1F [Compound N35] | 0.9847 | 100 | 6.39
N#Cc1ccc([C@@H](CO)NC(=O)CN2C(=O)Nc3cccnc3C23CC3)c(F)c1 [Compound N36] | 1.604 | 25.16 | 8.01
N#Cc1ccc([C@H](CO)NC(=O)CN2C(=O)Nc3cccnc3C23CC3)c(F)c1 [Compound N37] | 0.0599 | 4.582 | 0.20
N#Cc1nccc2c1CN(CC(=O)N[C@H](CO)c1ccc(F)cc1F)C(=O)N2 [Compound N40] | 4.177 | 100 | 87.45
N#Cc1nccc2c1CN(CC(=O)N[C@@H](CO)c1ccc(F)cc1F)C(=O)N2 [Compound N41] | 0.0762 | 2.357 | 1.12
C[C@H](NC(=O)CN1C(=O)Nc2ccc(O)nc2C12CC2)c1ccc(F)cc1F [Compound N42] | 100 | 100 | 100.00
O=C(CN1C(=O)Nc2cccnc2C12CC2)N[C@H](CO)c1ccc(F)cc1F [Compound N43] | 100 | 100 | 32.69
O=C(CN1C(=O)Nc2cccnc2C12CC2)N[C@@H](CO)c1ccc(F)cc1F [Compound N44] | 0.5658 | 18.96 | 1.18
O=C(CN1Cc2c(ccnc2C(F)(F)F)NC1=O)N[C@H](CO)c1ncc(F)cc1F [Compound N49] | 100 | 100 | 100.00
O=C(CN1Cc2c(ccnc2C(F)(F)F)NC1=O)N[C@@H](CO)c1ncc(F)cc1F [Compound N50] | 2.278 | 100 | 9.91
C[C@H](NC(=O)CN1Cc2c(Cl)cncc2NC1=O)c1ccc(F)cc1F [Compound N56, 2-{5-Chloro-2-oxo-1H,4H-pyrido[3,4-d]pyrimidin-3-yl}-N-[(1S)-1-(2,4-difluorophenyl)ethyl]acetamide] | 86.07 | 100 | 100.00
Cc1c(F)cnc2c1CN(CC(=O)N[C@@H](C)c1ccc(F)cc1F)C(=O)N2 [Compound N57, N-[(1S)-1-(2,4-Difluorophenyl)ethyl]-2-{6-fluoro-5-methyl-2-oxo-1H,4H-pyrido[2,3-d]pyrimidin-3-yl}acetamide] | 6.748 | 100 | 12.15

More lines, now with the values ahead:

Rabbit Psoas IC25 [1] [µM] | Porcine Ventricle IC25 [2] [µM] | Porcine Atria IC25 (Porcine Atria myofibrils) [µM] | SMILES
0.2119 | 37.65 | 2.97 | C[C@H](NC(=O)CN1Cc2c(C#N)cncc2NC1=O)c1ccc(F)cc1F [Compound N24, 2-{5-Cyano-2-oxo-1H,4H-pyrido[3,4-d]pyrimidin-3-yl}-N-[(1S)-1-(2,4-difluorophenyl)ethyl]acetamide]
5.343 | 100 | 60.44 | C[C@@H](NC(=O)CN1Cc2c(C#N)cncc2NC1=O)c1ncc(F)cc1F [Compound N38]
1.979 | 51.8 | 9.59 | C[C@H](NC(=O)CN1Cc2c(C#N)cncc2NC1=O)c1ncc(F)cc1F [Compound N39]
100 | 100 | 14.99 | C[C@H](NC(=O)[C@H](C)N1Cc2nc(C#N)ccc2NC1=O)c1ccc(F)cc1F [Compound N45]
100 | 100 | 100.00 | C[C@H](NC(=O)[C@@H](C)N1Cc2nc(C#N)ccc2NC1=O)c1ccc(F)cc1F [Compound N46]
0.2942 | 6.077 | 0.67 | C[C@@H](NC(=O)CN1C(=O)Nc2cccnc2C12CC2)c1ncc(F)cc1F [Compound N47]
100 | 100 | 100.00 | C[C@H](NC(=O)CN1C(=O)Nc2cccnc2C12CC2)c1ncc(F)cc1F [Compound N48]
100 | 100 | 100.00 | CC(NC(=O)CN1Cc2c(ccnc2C2CC2(F)F)NC1=O)c1ncc(F)cc1F (stereo not drawn) [Compound N51]
15.28 | 100 | 98.42 | Cc1c(F)cnc2c1CN(CC(=O)N[C@H](C)c1ncc(F)cc1F)C(=O)N2 [Compound N52]
100 | 100 | 100.00 | Cc1c(F)cnc2c1CN(CC(=O)N[C@@H](C)c1ncc(F)cc1F)C(=O)N2 [Compound N53]
100 | 100 | 100.00 | C[C@@H](NC(=O)CN1Cc2nc(C#N)ccc2NC1=O)c1ncc(F)cc1F [Compound N58]
100 | 100 | 6.80 | C[C@H](NC(=O)CN1Cc2nc(C#N)ccc2NC1=O)c1ncc(F)cc1F [Compound N59]
